Test results taken from US12540131B2 (Merck Sharp & Dohme LLC, priority 2019, dated 2026).

Target: GST tagged truncated human mutant G2019S LRRK2 (Homo sapiens (Human), UniProt Q5S007, G2019S)
Assay: LRRK2 Km ATP LanthaScreen Assay
Format: biochemical
Conditions: G2019S LRRK2, 134 μM ATP (Km ATP), mean values
Summary of the method: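 Enzyme (GST-tagged, truncated) was preincubated with compound for 15 min at RT in 50 mM Tris pH 8.5, 10 mM MgCl2, 0.01% Brij-35, 1 mM EGTA, 2 mM DTT and 0.05 mM orthovanadate. Fluorescein-LRRKtide and 134 μM ATP (Km) were then added for 90 min. EDTA and Tb-anti-pERM antibody stopped the reaction; the TR-FRET 520/495 ratio gave 4-parameter IC50s, reported as mean pIC50.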

GST tagged truncated human mutant G2019S LRRK2, sequence (Q5S007 970-2527 G2019S): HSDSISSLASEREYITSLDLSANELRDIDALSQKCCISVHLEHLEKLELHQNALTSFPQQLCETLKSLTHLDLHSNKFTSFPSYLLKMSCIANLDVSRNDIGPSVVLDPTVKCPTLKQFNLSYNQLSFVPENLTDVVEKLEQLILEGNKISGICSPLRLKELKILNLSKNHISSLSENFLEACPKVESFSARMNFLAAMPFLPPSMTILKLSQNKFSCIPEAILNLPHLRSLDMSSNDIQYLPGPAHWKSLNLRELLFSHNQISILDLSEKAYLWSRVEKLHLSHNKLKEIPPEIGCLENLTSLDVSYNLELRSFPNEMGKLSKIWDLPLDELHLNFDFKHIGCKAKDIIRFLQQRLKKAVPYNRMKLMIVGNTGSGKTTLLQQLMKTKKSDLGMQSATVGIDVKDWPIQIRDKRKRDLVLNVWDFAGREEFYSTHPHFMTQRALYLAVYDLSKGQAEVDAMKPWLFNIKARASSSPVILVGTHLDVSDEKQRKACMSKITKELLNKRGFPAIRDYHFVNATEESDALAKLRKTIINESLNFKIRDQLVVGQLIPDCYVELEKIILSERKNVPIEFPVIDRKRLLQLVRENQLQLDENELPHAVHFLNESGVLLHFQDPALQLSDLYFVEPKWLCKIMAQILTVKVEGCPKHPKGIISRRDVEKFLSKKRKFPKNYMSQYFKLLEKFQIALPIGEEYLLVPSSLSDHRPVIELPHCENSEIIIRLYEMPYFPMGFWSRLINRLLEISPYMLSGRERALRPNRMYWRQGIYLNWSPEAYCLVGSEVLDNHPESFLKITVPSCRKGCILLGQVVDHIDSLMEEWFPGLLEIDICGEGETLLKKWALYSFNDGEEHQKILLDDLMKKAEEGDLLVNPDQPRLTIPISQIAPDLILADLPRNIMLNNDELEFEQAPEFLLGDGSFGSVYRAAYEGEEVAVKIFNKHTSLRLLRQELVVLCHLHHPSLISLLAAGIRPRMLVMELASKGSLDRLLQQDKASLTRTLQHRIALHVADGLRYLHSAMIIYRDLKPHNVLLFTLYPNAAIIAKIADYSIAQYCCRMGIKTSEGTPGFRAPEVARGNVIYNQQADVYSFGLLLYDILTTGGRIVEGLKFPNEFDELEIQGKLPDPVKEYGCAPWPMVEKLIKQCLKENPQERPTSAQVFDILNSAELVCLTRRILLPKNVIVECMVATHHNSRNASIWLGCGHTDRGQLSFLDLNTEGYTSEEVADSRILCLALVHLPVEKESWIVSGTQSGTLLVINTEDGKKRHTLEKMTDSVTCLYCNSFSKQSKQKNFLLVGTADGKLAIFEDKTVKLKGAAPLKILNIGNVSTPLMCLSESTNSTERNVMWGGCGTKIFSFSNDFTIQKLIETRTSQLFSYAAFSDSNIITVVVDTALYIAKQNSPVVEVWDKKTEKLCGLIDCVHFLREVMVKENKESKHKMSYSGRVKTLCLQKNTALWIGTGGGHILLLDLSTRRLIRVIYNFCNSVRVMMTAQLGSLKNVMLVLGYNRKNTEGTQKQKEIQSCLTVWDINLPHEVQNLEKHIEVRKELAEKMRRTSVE

| SMILES | LRRK2 pIC50 |
| --- | --- |
| Cc1c(Nc2ncc3cc(Cl)c(C4CCN([C@@H]5COC[C@@H]5O)CC4)cc3n2)cnn1C1CC1 (single isomer, unassigned) [Ex-4.131, (3S,4S) or (3R,4R) 4-(4-{6-chloro-2-[(1-cyclopropyl-5-methyl-1H-pyrazol-4-yl)amino]quinazolin-7-yl}piperidin-1-yl)oxolan-3-ol] | 8.62 |
| Cc1c(Nc2ncc3cc(Cl)c(C4CCN([C@H]5COC[C@H]5O)CC4)cc3n2)cnn1C1CC1 (single isomer, unassigned) [Ex-4.132, (3S,4S) or (3R,4R) 4-(4-{6-chloro-2-[(1-cyclopropyl-5-methyl-1H-pyrazol-4-yl)amino]quinazolin-7-yl}piperidin-1-yl)oxolan-3-ol] | >9.20 |
| Cc1c(Nc2ncc3cc(Cl)c(C4CCN(C5COC5C)CC4)cc3n2)cnn1C(C)(C)C#N (single isomer, unassigned) [Ex-4.133, (2R,3R) or (2S,3S) or (2S,3R) or (2R,3S) 2-[4-({6-chloro-7-[1-(2-methyloxetan-3-yl)piperidin-4-yl]quinazolin-2-yl}amino)-5-methyl-1H-pyrazol-1-yl]-2-methylpropanenitrile] | 8.92 |
| Cc1c(Nc2ncc3cc(Cl)c(C4CCN(C5COC5C)CC4)cc3n2)cnn1C(C)(C)C#N (single isomer, unassigned) [Ex-4.134, (2R,3R) or (2S,3S) or (2S,3R) or (2R,3S) 2-[4-({6-chloro-7-[1-(2-methyloxetan-3-yl)piperidin-4-yl]quinazolin-2-yl}amino)-5-methyl-1H-pyrazol-1-yl]-2-methylpropanenitrile] | >9.20 |
| Cc1cc2cnc(Nc3cnn(C4CC4)c3Cl)nc2cc1[C@@H]1CCN(C2COC[C@@H]2O)C[C@H]1F (single isomer, unassigned) [Ex-4.135, (3S,4S)(3S,4S) or (3S,4S)(3R,4R) or (3R,4R)(3S,4S) or (3R,4R)(3R,4R) 4-(4-{2-[(5-chloro-1-cyclopropyl-1H-pyrazol-4-yl)amino]-6-methylquinazolin-7-yl}-3-fluoropiperidin-1-yl)oxolan-3-ol] | >9.20 |
| Cc1cc2cnc(Nc3cnn(C4CC4)c3Cl)nc2cc1[C@@H]1CCN(C2COC[C@H]2O)C[C@H]1F (single isomer, unassigned) [Ex-4.136, (3S,4S)(3S,4S) or (3S,4S)(3R,4R) or (3R,4R)(3S,4S) or (3R,4R)(3R,4R) 4-(4-{2-[(5-chloro-1-cyclopropyl-1H-pyrazol-4-yl)amino]-6-methylquinazolin-7-yl}-3-fluoropiperidin-1-yl)oxolan-3-ol] | 8.41 |
| Cc1cc2cnc(Nc3cnn(C4CC4(F)F)c3Cl)nc2cc1[C@@H]1CCN(C2COC[C@@H]2O)C[C@H]1F (single isomer, unassigned) [Ex-4.137, (R)(3S,4S)(3S,4S) or (R)(3S,4S)(3R,4R) or (R)(3R,4R)(3S,4S) or (R)(3R,4R)(3R,4R) or (S)(3S,4S)(3S,4S) or (S)(3S,4S)(3R,4R) or (S)(3R,4R)(3S,4S) or (S)(3R,4R)(3R,4R) 4-[4-(2-{[5-chloro-1-(2,2-difluorocyclopropyl)-1H-pyrazol-4-yl]amino}-6-methylquinazolin-7-yl)-3-fluoropiperidin-1-yl]oxolan-3-ol] | >9.20 |
| Cc1cc2cnc(Nc3cnn(C4CC4(F)F)c3Cl)nc2cc1[C@@H]1CCN(C2COC[C@H]2O)C[C@H]1F (single isomer, unassigned) [Ex-4.138, (R)(3S,4S)(3S,4S) or (R)(3S,4S)(3R,4R) or (R)(3R,4R)(3S,4S) or (R)(3R,4R)(3R,4R) or (S)(3S,4S)(3S,4S) or (S)(3S,4S)(3R,4R) or (S)(3R,4R)(3S,4S) or (S)(3R,4R)(3R,4R) 4-[4-(2-{[5-chloro-1-(2,2-difluorocyclopropyl)-1H-pyrazol-4-yl]amino}-6-methylquinazolin-7-yl)-3-fluoropiperidin-1-yl]oxolan-3-ol] | 8.44 |
| Cc1cc2cnc(Nc3cnn(C4CC4(F)F)c3Cl)nc2cc1[C@H]1CCN(C2COC[C@@H]2O)C[C@@H]1F (single isomer, unassigned) [Ex-4.139, (R)(3S,4S)(3S,4S) or (R)(3S,4S)(3R,4R) or (R)(3R,4R)(3S,4S) or (R)(3R,4R)(3R,4R) or (S)(3S,4S)(3S,4S) or (S)(3S,4S)(3R,4R) or (S)(3R,4R)(3S,4S) or (S)(3R,4R)(3R,4R) 4-[4-(2-{[5-chloro-1-(2,2-difluorocyclopropyl)-1H-pyrazol-4-yl]amino}-6-methylquinazolin-7-yl)-3-fluoropiperidin-1-yl]oxolan-3-ol] | >9.20 |
| Cc1cc2cnc(Nc3cnn(C4CC4(F)F)c3Cl)nc2cc1[C@H]1CCN(C2COC[C@H]2O)C[C@@H]1F (single isomer, unassigned) [Ex-4.140, (R)(3S,4S)(3S,4S) or (R)(3S,4S)(3R,4R) or (R)(3R,4R)(3S,4S) or (R)(3R,4R)(3R,4R) or (S)(3S,4S)(3S,4S) or (S)(3S,4S)(3R,4R) or (S)(3R,4R)(3S,4S) or (S)(3R,4R)(3R,4R) 4-[4-(2-{[5-chloro-1-(2,2-difluorocyclopropyl)-1H-pyrazol-4-yl]amino}-6-methylquinazolin-7-yl)-3-fluoropiperidin-1-yl]oxolan-3-ol] | 9.19 |
| Cc1cc2cnc(Nc3cnn(C4CC4(F)F)c3C)nc2cc1C1CCN([C@H]2COC[C@H]2O)CC1 (single isomer, unassigned) [Ex-4.141, (R)(3S,4S) or (S)(3S,4S) or (R)(3R,4R) or (S)(3R,4R) 4-[4-(2-{[1-(2,2-difluorocyclopropyl)-5-methyl-1H-pyrazol-4-yl]amino}-6-methylquinazolin-7-yl)piperidin-1-yl]oxolan-3-ol] | >9.20 |
| Cc1cc2cnc(Nc3cnn(C4CC4(F)F)c3C)nc2cc1C1CCN([C@@H]2COC[C@@H]2O)CC1 (single isomer, unassigned) [Ex-4.142, (R)(3S,4S) or (S)(3S,4S) or (R)(3R,4R) or (S)(3R,4R) 4-[4-(2-{[1-(2,2-difluorocyclopropyl)-5-methyl-1H-pyrazol-4-yl]amino}-6-methylquinazolin-7-yl)piperidin-1-yl]oxolan-3-ol] | 8.94 |
| Cc1cc2cnc(Nc3cnn(C4CC4(F)F)c3C)nc2cc1[C@@H]1CCN([C@H]2COC[C@H]2O)C[C@H]1F (single isomer, unassigned) [Ex-4.143, (R)(3S,4S)(3S,4S) or (R)(3S,4S)(3R,4R) or (R)(3R,4R)(3S,4S) or (R)(3R,4R)(3R,4R) or (S)(3S,4S)(3S,4S) or (S)(3S,4S)(3R,4R) or (S)(3R,4R)(3S,4S) or (S)(3R,4R)(3R,4R) 4-[4-(2-{[1-(2,2-difluorocyclopropyl)-5-methyl-1H-pyrazol-4-yl]amino}-6-methylquinazolin-7-yl)-3-fluoropiperidin-1-yl]oxolan-3-ol] | >9.20 |
| Cc1cc2cnc(Nc3cnn(C4CC4(F)F)c3C)nc2cc1[C@@H]1CCN([C@@H]2COC[C@@H]2O)C[C@H]1F (single isomer, unassigned) [Ex-4.144, (R)(3S,4S)(3S,4S) or (R)(3S,4S)(3R,4R) or (R)(3R,4R)(3S,4S) or (R)(3R,4R)(3R,4R) or (S)(3S,4S)(3S,4S) or (S)(3S,4S)(3R,4R) or (S)(3R,4R)(3S,4S) or (S)(3R,4R)(3R,4R) 4-[4-(2-{[1-(2,2-difluorocyclopropyl)-5-methyl-1H-pyrazol-4-yl]amino}-6-methylquinazolin-7-yl)-3-fluoropiperidin-1-yl]oxolan-3-ol] | 8.68 |
| Cc1cc2cnc(Nc3cnn(C4CC4(F)F)c3Cl)nc2cc1[C@@H]1CCN([C@H]2COC[C@H]2O)C[C@H]1F (single isomer, unassigned) [Ex-4.145, (R)(3S,4S)(3S,4S) or (R)(3S,4S)(3R,4R) or (R)(3R,4R)(3S,4S) or (R)(3R,4R)(3R,4R) or (S)(3S,4S)(3S,4S) or (S)(3S,4S)(3R,4R) or (S)(3R,4R)(3S,4S) or (S)(3R,4R)(3R,4R) 4-[4-(2-{[5-chloro-1-(2,2-difluorocyclopropyl)-1H-pyrazol-4-yl]amino}-6-methylquinazolin-7-yl)-3-fluoropiperidin-1-yl]oxolan-3-ol] | >9.20 |
| Cc1cc2cnc(Nc3cnn(C4CC4(F)F)c3C)nc2cc1[C@@H]1CCN([C@@H]2COC[C@@H]2O)C[C@H]1F (single isomer, unassigned) [Ex-4.146, (R)(3S,4S)(3S,4S) or (R)(3S,4S)(3R,4R) or (R)(3R,4R)(3S,4S) or (R)(3R,4R)(3R,4R) or (S)(3S,4S)(3S,4S) or (S)(3S,4S)(3R,4R) or (S)(3R,4R)(3S,4S) or (S)(3R,4R)(3R,4R) 4-[4-(2-{[1-(2,2-difluorocyclopropyl)-5-methyl-1H-pyrazol-4-yl]amino}-6-methylquinazolin-7-yl)-3-fluoropiperidin-1-yl]oxolan-3-ol] | >9.20 |
| Cc1cc2cnc(Nc3cnn(C4CC4(F)F)c3Cl)nc2cc1[C@@H]1CCN([C@@]2(C)COC[C@H]2O)C[C@H]1F (single isomer, unassigned) [Ex-4.147, (R)(3S,4S)(3S,4S) or (R)(3S,4S)(3R,4R) or (R)(3R,4R)(3S,4S) or (R)(3R,4R)(3R,4R) or (S)(3S,4S)(3S,4S) or (S)(3S,4S)(3R,4R) or (S)(3R,4R)(3S,4S) or (S)(3R,4R)(3R,4R) 4-[4-(2-{[5-chloro-1-(2,2-difluorocyclopropyl)-1H-pyrazol-4-yl]amino}-6-methylquinazolin-7-yl)-3-fluoropiperidin-1-yl]-4-methyloxolan-3-ol] | >9.20 |
